Assay results published in patent publication US20050283841A1, “Inhibition of protein kinase C-related kinase (PRK) as a treatment for cardiac hypertrophy and heart failure” (priority 2004, published 2005).

Columns and labels:
[1] = tested on: PRK; conditions: Kuwahara et al., 1999; Kondoh et al., 1997; not specific for PRK, also block ROCK; cited from earlier work
[2] = Isoproterenol infusion model of pathological cardiac hypertrophy, heart weight to body weight ratio; format: in vivo, Sprague-Dawley rats; conditions: isoproterenol 4.8 mg/kg/d, subcutaneous osmotic minipump, 4 days; data not shown
Procedure: (§1) For isoproterenol infusion, nine to ten-week-old male Sprague-Dawley rats were anesthetized via passive inhalation of 2.0% isoflurane. When a level of surgical anesthesia was reached, an osmotic minipump (Alzet model 2001, Alza Corp., Palo Alto Calif.) containing either vehicle (0.1% ascorbic acid in 0.9% NaCl), or isoproterenol (4.8 mg/kg/d) was subcutaneously implanted into the back between the scapulae followed by closure with 3-0 silk sutures. After 4 days of recovery, animals were sacrificed and left ventricular tissue processed for Western blot analysis as described below. Average heart weight to body weight ratios in isoproterenol versus vehicle-infused rats increased 48% (data not shown).

[3] = tested on: PRK; test: Western blot analysis of PRK phosphorylation status in left ventricular tissue after isoproterenol infusion; format: in vivo; conditions: rat, 4 days of isoproterenol infusion compared to control saline infusion; anti-phospho-PRK Western blot; *P<0.05
Procedure: as §1
Immunoblotting analyses. […] Protein concentration was determined by BCA assay (Pierce), and 20 μg of total protein was resolved by SDS-polyacrylamide gel electrophoresis (PAGE) with gradient gels (4 to 20% polyacrylamide; Invitrogen). […] Film images were then scanned and quantified using a digital image analysis system (Alpha Innotech).
PRK phosphorylation is increased with pathological cardiac hypertrophy in vivo. […] PRK phosphorylation is readily detected by Western analysis employing anti-phospho-PRK antibodies.

SMILES	PRK inhibition (known inhibitor) [1]	Average heart weight to body weight ratios, increase versus vehicle-infused rats [2]	PRK phosphorylation [3]
O=S(=O)(c1cccc2cnccc12)N1CCCNCC1 [Fasudil]	characterized as PRK inhibitors	–	–
C[C@@H](N)[C@H]1CC[C@H](C(=O)Nc2ccncc2)CC1 [Y27632]	characterized as PRK inhibitors	–	–
CC(C)NCC(O)c1ccc(O)c(O)c1 (stereo not shown) [isoproterenol]	–	48%	increased
